From publication PMC7873978, “A Novel Lipoate-Protein Ligase, Mhp-LplJ, Is Required for Lipoic Acid Metabolism in Mycoplasma hyopneumoniae” (Frontiers in Microbiology, 2021) come the findings set out here.

Test [1] deals with T1, Mhp-LplJ (lipoate-protein ligase, MHP_RS00640) (Mesomycoplasma hyopneumoniae, UniProt E4QSS7).
T1 construct: gene lplA; hexa-histidine-tagged Mhp-LplJ (pET22b)
T1 sequence (E4QSS7 1-336): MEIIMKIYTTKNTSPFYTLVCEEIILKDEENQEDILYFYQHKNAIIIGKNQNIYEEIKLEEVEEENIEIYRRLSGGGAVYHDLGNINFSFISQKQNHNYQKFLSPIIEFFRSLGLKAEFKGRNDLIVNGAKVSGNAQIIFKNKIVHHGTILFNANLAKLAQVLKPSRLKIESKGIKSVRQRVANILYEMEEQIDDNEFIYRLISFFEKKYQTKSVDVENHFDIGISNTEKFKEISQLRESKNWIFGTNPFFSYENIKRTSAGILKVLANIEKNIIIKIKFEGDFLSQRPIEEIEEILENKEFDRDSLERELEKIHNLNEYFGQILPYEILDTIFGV
In words: in vitro octanoate ligation to apo-PdhD, gel shift assay. Format: biochemical.

Test [2] has as its target T2, E. coli LplA (lipoate-protein ligase A) (Escherichia coli, UniProt P32099).
T2 construct: hexa-histidine-tagged E. coli LplA (pET32a)
T2 sequence (P32099 2-338): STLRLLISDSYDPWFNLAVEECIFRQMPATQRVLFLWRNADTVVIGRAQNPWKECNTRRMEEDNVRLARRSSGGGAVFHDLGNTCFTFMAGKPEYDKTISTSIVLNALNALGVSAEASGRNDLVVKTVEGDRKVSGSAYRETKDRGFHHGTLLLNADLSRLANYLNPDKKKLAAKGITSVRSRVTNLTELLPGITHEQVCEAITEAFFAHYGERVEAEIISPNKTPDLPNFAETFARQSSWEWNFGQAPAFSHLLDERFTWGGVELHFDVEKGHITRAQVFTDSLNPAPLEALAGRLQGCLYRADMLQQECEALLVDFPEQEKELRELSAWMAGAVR
In words: in vitro lipoate ligation to apo-PdhD, anti-lipoic acid western blot (positive control enzyme). Format: biochemical.

Test [3] deals with T1, Mhp-LplJ (lipoate-protein ligase, MHP_RS00640). Kind of test: SPR (Biacore 8K, CM5, immobilized Mhp-LplJ), single-site kinetics fit. Format: binding. For orientation: Surface plasmon resonance follows binding to a sensor surface in real time, without labels.
The target is the same in test [4]. In words: SPR (Biacore 8K), single-site affinity fit; also inhibits PdhD lipoylation in vitro at […]. Format: binding.

With `CCCCCCCC(=O)O` [octanoic acid], the “in vitro octanoate ligation to apo-PdhD, gel shift assay” value in test [1] is “Mhp-LplJ could able to catalyze the attachment of free octanoic acid to PdhD”. One may read the Kd as the constant that tells how readily two partners part at equilibrium. A low value points to a tighter complex. With `O=C(O)CCCC[C@@H]1CCSS1` [lipoic acid, (R)-5-(1,2-dithiolane-3-yl) pentanoic acid], the “in vitro lipoate ligation to apo-PdhD, anti-lipoic acid western blot (positive c)” value in test [2] is “PdhD was successfully modified by E. coli LplA in vitro in the presence of lipoic acid”. Further, binding in test [3] was characterised by a dissociation constant (Kd) of 24.1 ± 1.61 µM. In test [4], `O=C(O)CCCCCCCBr` [8-BrO, 8-bromooctanoic acid] showed an equilibrium dissociation constant (Kd) of 29.8 ± 3.62 µM.
